# What was measured:
# Format in all cases: cell-based, human
# MG-63 cells [1] = assay: ALP production on reference surfaces; details: 0.5 mM strontium on reference surface 1, after 7 days of cell culture
# Description: (§1) At harvest, the cell culture medium was analysed with respect to the ALP content. The intracellular ALP was measured by cell lysis according to the instructions of the manufacturer (SenzoLyte™ pNPP Alkaline Phosphatase Assay Kit Colorimetric BioSite, Sweden). The absorption was set at 405 nm by an automatic plate reader (Vmax, Molecular Device, UK). By comparing the optical density of the samples with the standard provided with the kit, the ALP concentrations could be determined. The instructions from the manufacturer were followed (BioSite, Sweden).
# The production of ALP on reference surface 1 comprising a concentration of 0.5 mM strontium was compared with unstimulated reference surfaces 1 and 2.
# MG-63 cells [2] = assay: MG-63 proliferation on reference surfaces with strontium (NucleoCounter); details: 0.5 mM strontium on reference surface 1, 7 days, compared to unstimulated reference surfaces 1 and 2
# Description: Sterilized (β-radiation) Ti coins with reference surfaces 1 and 2, respectively were placed in 24 well plates. MG-63 cells were subcultured onto the coins in the 24 well plates at a plating density of 10 000 cells/cm^2, in total 20 000 cells/well. Sterile filtered Sr(NO3)2 at final concentrations of 5 mM and 0.5 mM (pH 5.2) was added to the respective wells. Untreated cells were used as controls. Cells were cultured for 7 days at a temperature of 37° C. in an atmosphere of 5% CO2 and 100% humidity.
# The total number of cells in each well (×10^5) after each time period was determined by the NucleoCassette method by the NucleoCounter (ChemoMetec A/S Denmark).
# The number of cells was investigated by lysis of the cells in “Reagent A” having a pH of 1.25 following stabilization by “Reagent B”. In the NucleoCassette, propidium iodide was incorporated which targets the amount of released DNA. The cassette was placed in the NucleoCounter and the amount of measured fluorochrome corresponded to the amount of DNA. The instructions from the manufacturer were followed (Chemometec A/S, Denmark).
# MG-63 cells [3] = assay: Production of alkaline phosphatase (ALP) by MG-63 cells with Sr(NO3)2 added to the wells
# Description: MG-63 is a human cell line (ATCC No CRL-1427, U.S.) conventionally used in the art for in vitro studies of osteoblasts.
# In this study, MG-63 cells were obtained from frozen cells in second passage and further cultured in Dulbecco's modified Eagle's medium (DMEM) containing FCS 5%, PEST 1%, Gibco, UK) in 37° C. in an atmosphere of 5% CO2 and 100% humidity. When the cells reached confluence they were subcultured by the use of 0.05% Trypsin-EDTA (Gibco, UK) until the amount of cells were obtained.
# In order to study the effect of strontium on the production of alkaline phosphatase (ALP), MG-63 cells prepared in reference example 1 were subcultured into 24 well plates at a plating density of 10 000 cells/cm^2, in total 20 000 cells/well. Sterile filtered Sr(NO3)2 at final concentrations of 10 mM, 5 mM, 3 mM, and 1 mM respectively (pH 5.2) were added to the respective wells of the plate. Untreated cells were used as controls. Cells were cultured for 3, 7 and 14 days at a temperature of 37° C. in an atmosphere of 5% CO2 and 100% humidity.
# as §1
compound,measurement,setting,value
"O=[N+]([O-])[O-].O=[N+]([O-])[O-].[Sr+2] [strontium, Sr(NO3)2]",production of ALP compared with unstimulated reference surfaces 1 and 2,MG-63 cells [1],increased production of ALP
same,"MG-63 cell proliferation, rank",MG-63 cells [2],highest MG-63 cell proliferation
same,"amount of ALP, rank among concentrations","MG-63 cells [3]; 3 mM strontium, after 14 days of culturing",highest amount of ALP
same,production of ALP compared to control,MG-63 cells [3]; after 7 days of culture,small increase
same,ALP levels compared to control,"MG-63 cells [3]; after 14 days, especially at Sr concentrations 1 mM and 3 mM",remarkably increased
same,production of ALP compared to control (unstimulated cells),"MG-63 cells [3]; initially (3 days), all strontium concentrations (1, 3, 5, 10 mM), polystyrene",initially slow

# Source: patent US9744263B2, “Bone tissue implant comprising strontium ions” (ASTRA TECH AB, priority 2007, dated 2017)
